Reference: US9593155B2, “Oxyntomodulin analogs” (priority 2009, dated 2017)
Read-outs that look alike come from different tables or passages of the source. *1 amine or outer side, *2 acyl side, *3 side chain or, on linkers, in order; H or OH if unused. Where a SMILES comes first, the peptide text is derived from it. Bridges are numbered along the chain shown (N, C = ends). Where no end group is shown, it is not given here. Side-chain parts run from the residue outwards. [ ]: non-standard residue; d: D form. The star is where a group is joined. ξ: configuration not given here. C10 = S-[42-(cholest-5-en-3-yloxy)-2,42-dioxo-6,9,12,15,18,21,24,27,30,33,36,39-dodecaoxa-3-azadotetracont-1-yl]-L-cysteine, Cys(oxa12-cholesterol), CC(C)CCC[C@@H](C)[C@H]1CC[C@H]2[C@@H]3CC=C4C[C@@H](OC(=O)CCOCCOCCOCCOCCOCCOCCOCCOCCOCCOCCOCCOCCNC(=O)CSC[C@H](N[*:1])C(=O)[*:2])CC[C@]4(C)[C@H]3CC[C@]12C; X1 = CC(C)CCCC(C)[C@H]1CCC2C3CC=C4C[C@@H](OC(=O)CCOCCOCCOCCOCCOCCOCCOCCOCCOCCOCCOCCOCCNC(=O)C*)CC[C@]4(C)C3CC[C@@]21C; CH2CO2(3ξ-cholesteryl) = CC(C)CCC[C@@H](C)[C@H]1CC[C@H]2[C@@H]3CC=C4CC(OC(=O)C*)CC[C@]4(C)[C@H]3CC[C@]12C; γGlu = O=C(O)[C@H](CCC(=O)[*:2])N[*:1]; mPEG2 40kDa = C3 = Cys(mPEG)2 40 kDa; Palmitoyl = CCCCCCCCCCCCCCCC(=O)*; Met(O) = CS(=O)CC[C@H](N)C(=O)O; Nle = CCCC[C@H](N)C(=O)O; Ac4c = NC1(C(=O)O)CCC1; Aib = CC(C)(N)C(=O)O

What was measured:
[1] = target: hGCGR (Homo sapiens, UniProt P47871); experiment: fluorescence cell based cAMP assay, CHO cells stably expressing GCGR; settings: for GCGR + 10% plasma (fold shift): EC50 with 10% plasma vs without; for Receptor Selectivity: GLP-1R/GCGR, Table 6
Protocol: We initially screened peptides in fluorescence cell based assays that measure production of cyclic-AMP (cAMP), using CHO cell lines stably expressing either recombinant human GLP-1R or human GCGR. Determination of Mouse and human GLP-1R and GCGR Agonist Activity was essentially as follows. CHO cells stably expressing mouse or human GLP-1R or GCGR were grown in Iscove's Modified Dulbecco's Medium (IMDM), 10% FBS, 1 mM L-glutamine, penicillin-streptomycin (100 μ/mL) and 750 μg G418/mL for three-four days before harvesting using Enzymefree Dissociation Media (EFDM, Specialty Media). […] The assay was terminated with the addition of the LANCE kit Detection buffer as per the manufacturer's instructions. The plates were held an additional hour at room temperature, then increasing cAMP levels were detected by a decrease in TR-FRET signal as measured in an EnVision counter (PerkinElmer) in comparison to a standard curve of cAMP as per the manufacturer's instructions. Data were analyzed using the linear and nonlinear regression analysis software, GraphPad Prism.
The in vitro potencies shown in Table 10 or Table 11 were determined from the results of assays that were similar to either the cell-based cAMP assays described herein above (Table 10) or the cell-based cAMP assays described in International Published Application No. WO2008101017, which is incorporated herein in its entirety, in particular the cell-based cAMP assays described therein (Table 11).

[2] = pI of the peptide analogs

Chain of hGCGR (P47871 26-477): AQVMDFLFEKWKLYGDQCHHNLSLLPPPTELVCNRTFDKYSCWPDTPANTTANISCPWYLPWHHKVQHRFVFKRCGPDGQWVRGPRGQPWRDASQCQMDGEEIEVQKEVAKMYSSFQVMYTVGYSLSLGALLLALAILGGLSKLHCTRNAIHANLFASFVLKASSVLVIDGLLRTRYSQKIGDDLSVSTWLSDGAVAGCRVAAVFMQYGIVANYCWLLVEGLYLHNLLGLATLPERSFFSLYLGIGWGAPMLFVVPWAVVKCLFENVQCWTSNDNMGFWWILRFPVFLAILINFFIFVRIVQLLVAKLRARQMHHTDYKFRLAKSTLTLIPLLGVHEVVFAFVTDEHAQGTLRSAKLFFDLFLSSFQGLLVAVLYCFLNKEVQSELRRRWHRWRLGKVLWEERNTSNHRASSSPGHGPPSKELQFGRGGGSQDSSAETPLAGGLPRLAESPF

| Compound | pI [2] | pI ([2]; Table 10) | further results |
| --- | --- | --- | --- |
| CCCC[C@H](NC(=O)[C@H](CC(C)C)NC(=O)[C@H](Cc1c[nH]c2ccccc12)NC(=O)[C@H](CCC(N)=O)NC(=O)[C@@H](NC(=O)[C@H](Cc1ccccc1)NC(=O)[C@H](CC(=O)O)NC(=O)[C@H](CCC(N)=O)NC(=O)[C@H](C)NC(=O)[C@H](CCCNC(=N)N)NC(=O)[C@H](CCCNC(=N)N)NC(=O)[C@H](CO)NC(=O)[C@H](CC(=O)O)NC(=O)[C@H](CC(C)C)NC(=O)[C@H](Cc1ccc(O)cc1)NC(=O)[C@H](CCCCN)NC(=O)[C@H](CO)NC(=O)[C@H](Cc1ccc(O)cc1)NC(=O)[C@H](CC(=O)O)NC(=O)[C@H](CO)NC(=O)[C@@H](NC(=O)[C@H](Cc1ccccc1)NC(=O)[C@@H](NC(=O)CNC(=O)[C@H](CCC(N)=O)NC(=O)C(C)(C)NC(=O)[C@@H](N)Cc1c[nH]cn1)[C@@H](C)O)[C@@H](C)O)C(C)C)C(=O)N[C@@H](CC(N)=O)C(=O)N[C@H](C(=O)N[C@@H](CCCCN)C(=O)N[C@@H](CCCNC(=N)N)C(=O)N[C@@H](CC(N)=O)C(=O)N[C@@H](CCCNC(=N)N)C(=O)N[C@@H](CC(N)=O)C(=O)N[C@@H](CC(N)=O)C(=O)N[C@H](C(=O)N[C@@H](C)C(=O)N[C@@H](CSCC(=O)OC1CC[C@@]2(C)C(=CC[C@H]3[C@@H]4CC[C@H]([C@H](C)CCCC(C)C)[C@@]4(C)CC[C@@H]32)C1)C(N)=O)[C@@H](C)CC)[C@@H](C)O (stereo partly drawn) [OXM212] (H-H[Aib]QGTFTSDYSKYLDSRRAQDFVQWL[Nle]NTKRNRNNIAC(CH2CO2(3ξ-cholesteryl))-NH2; N-terminus assumed) | – | – | GCGR + 10% plasma (fold shift) [1]: (92x) fold |
| CC[C@H](C)[C@H](NC(=O)[C@H](CC(N)=O)NC(=O)[C@H](CC(N)=O)NC(=O)[C@H](CCCNC(=N)N)NC(=O)[C@H](CC(N)=O)NC(=O)[C@H](CCCNC(=N)N)NC(=O)[C@H](CCCCN)NC(=O)[C@@H](NC(=O)[C@H](CC(N)=O)NC(=O)[C@H](CCOC)NC(=O)[C@H](CC(C)C)NC(=O)[C@H](Cc1c[nH]c2ccccc12)NC(=O)[C@H](CCC(N)=O)NC(=O)[C@@H](NC(=O)[C@H](Cc1ccccc1)NC(=O)[C@H](CC(=O)O)NC(=O)[C@H](CCC(N)=O)NC(=O)[C@H](C)NC(=O)[C@H](CCCNC(=N)N)NC(=O)[C@H](CCCNC(=N)N)NC(=O)[C@H](CO)NC(=O)[C@H](CC(=O)O)NC(=O)[C@H](CC(C)C)NC(=O)[C@H](Cc1ccc(O)cc1)NC(=O)[C@H](CCCCN)NC(=O)[C@H](CO)NC(=O)[C@H](Cc1ccc(O)cc1)NC(=O)[C@H](CC(=O)O)NC(=O)[C@H](CO)NC(=O)[C@@H](NC(=O)[C@H](Cc1ccccc1)NC(=O)[C@@H](NC(=O)CNC(=O)[C@H](CCC(N)=O)NC(=O)C(C)(C)NC(=O)[C@@H](N)Cc1c[nH]cn1)[C@@H](C)O)[C@@H](C)O)C(C)C)[C@@H](C)O)C(=O)N[C@@H](C)C(=O)N[C@@H](CSCC(=O)OC1CC[C@@]2(C)C(=CC[C@H]3[C@@H]4CC[C@H]([C@H](C)CCCC(C)C)[C@@]4(C)CC[C@@H]32)C1)C(N)=O (stereo partly drawn) [OXM213] | – | – | GCGR + 10% plasma (fold shift) [1]: (44x) fold |
| CSCC[C@H](NC(=O)[C@H](CC(C)C)NC(=O)[C@H](Cc1c[nH]c2ccccc12)NC(=O)[C@H](CCC(N)=O)NC(=O)[C@@H](NC(=O)[C@H](Cc1ccccc1)NC(=O)[C@H](CC(=O)O)NC(=O)[C@@H]1CCCCNC(=O)CC[C@H](NC(=O)[C@H](CC(=O)O)NC(=O)[C@H](CC(C)C)NC(=O)[C@H](Cc2ccc(O)cc2)NC(=O)[C@H](CCCCN)NC(=O)[C@H](CO)NC(=O)[C@H](Cc2ccc(O)cc2)NC(=O)[C@H](CC(=O)O)NC(=O)[C@H](CO)NC(=O)[C@@H](NC(=O)[C@H](Cc2ccccc2)NC(=O)[C@@H](NC(=O)CNC(=O)[C@H](CCC(N)=O)NC(=O)[C@@H](CO)NC(=O)[C@@H](N)Cc2c[nH]cn2)[C@@H](C)O)[C@@H](C)O)C(=O)N[C@@H](CCCNC(=N)N)C(=O)N[C@@H](CCCNC(=N)N)C(=O)N[C@@H](C)C(=O)N1)C(C)C)C(=O)N[C@@H](CC(N)=O)C(=O)N[C@H](C(=O)N[C@@H](CCCCN)C(=O)N[C@@H](CCC(=O)N[C@@H](CCC(=O)N[C@@H](CSCC(=O)NCCOCCOCCOCCOCCOCCOCCOCCOCCOCCOCCOCCOCCC(=O)O[C@H]1CC[C@@]2(C)C(=CCC3C2CC[C@@]2(C)C3CC[C@@H]2C(C)CCCC(C)C)C1)C(=O)O)C(=O)O)C(=O)O)[C@@H](C)O (stereo partly drawn) [OXM392] (H-H[dS]QGTFTSDYSKYLDERRAKDFVQWLMNTK[γGlu][γGlu]C(X1)-OH; lactam 16-20) | about 5.4 | 5.4 | – |
| CCCCCCCCCCCCCCCC(=O)N[C@@H](CCC(=O)NCCCC[C@H](NC(=O)[C@H](CC(=O)O)NC(=O)[C@H](CO)NC(=O)[C@@H](NC(=O)[C@H](Cc1ccccc1)NC(=O)[C@@H](NC(=O)CNC(=O)[C@H](CCC(N)=O)NC(=O)[C@@H](CO)NC(=O)[C@@H](N)Cc1c[nH]cn1)[C@@H](C)O)[C@@H](C)O)C(=O)N[C@@H](CO)C(=O)N[C@@H](CCCCN)C(=O)N[C@@H](Cc1ccc(O)cc1)C(=O)N[C@@H](CC(C)C)C(=O)N[C@@H](CC(=O)O)C(=O)N[C@@H](CCC(=O)O)C(=O)N[C@@H](CCCNC(=N)N)C(=O)N[C@@H](CCCNC(=N)N)C(=O)N[C@@H](C)C(=O)N[C@@H](CCC(N)=O)C(=O)N[C@@H](CC(=O)O)C(=O)N[C@@H](Cc1ccccc1)C(=O)N[C@H](C(=O)N[C@@H](CCC(N)=O)C(=O)N[C@@H](Cc1c[nH]c2ccccc12)C(=O)N[C@@H](CC(C)C)C(=O)N[C@@H](CCSC)C(=O)N[C@@H](CC(N)=O)C(=O)N[C@H](C(=O)N[C@@H](CCCCN)C(=O)N[C@@H](CCC(N)=O)C(=O)O)[C@@H](C)O)C(C)C)C(=O)O [OXM414] (H-H[dS]QGTFTSDK([γGlu-Palmitoyl])SKYLDERRAQDFVQWLMNTKQ-OH; N-terminus and C-terminus assumed) | – | 5.4 | – |
| CCCCCCCCCCCCCCCC(=O)N[C@@H](CCC(=O)N[C@@H](CCC(=O)NCCCC[C@H](NC(=O)[C@H](CC(=O)O)NC(=O)[C@H](CO)NC(=O)[C@@H](NC(=O)[C@H](Cc1ccccc1)NC(=O)[C@@H](NC(=O)CNC(=O)[C@H](CCC(N)=O)NC(=O)C(C)(C)NC(=O)[C@@H](N)Cc1c[nH]cn1)[C@@H](C)O)[C@@H](C)O)C(=O)N[C@@H](CO)C(=O)N[C@@H](CCCCN)C(=O)N[C@@H](Cc1ccc(O)cc1)C(=O)N[C@@H](CC(C)C)C(=O)N[C@@H](CC(=O)O)C(=O)N[C@@H](CCC(=O)O)C(=O)N[C@@H](CCCNC(=N)N)C(=O)N[C@@H](CCCNC(=N)N)C(=O)N[C@@H](C)C(=O)N[C@@H](CCC(N)=O)C(=O)N[C@@H](CC(=O)O)C(=O)N[C@@H](Cc1ccccc1)C(=O)N[C@H](C(=O)N[C@@H](CCC(N)=O)C(=O)N[C@@H](Cc1c[nH]c2ccccc12)C(=O)N[C@@H](CC(C)C)C(=O)N[C@@H](CCSC)C(=O)N[C@@H](CC(N)=O)C(=O)N[C@H](C(=O)N[C@@H](CCCCN)C(N)=O)[C@@H](C)O)C(C)C)C(=O)O)C(=O)O [OXM416] (H-H[Aib]QGTFTSDK([γGlu-γGlu-Palmitoyl])SKYLDERRAQDFVQWLMNTK-NH2) | – | 5.5 | – |
| CCCCCCCCCCCCCCCC(=O)N[C@@H](CCC(=O)N[C@@H](CCC(=O)NCCCC[C@H](NC(=O)[C@H](CC(=O)O)NC(=O)[C@H](CO)NC(=O)[C@@H](NC(=O)[C@H](Cc1ccccc1)NC(=O)[C@@H](NC(=O)CNC(=O)[C@H](CCC(N)=O)NC(=O)C1(NC(=O)[C@@H](N)Cc2c[nH]cn2)CCC1)[C@@H](C)O)[C@@H](C)O)C(=O)N[C@@H](CO)C(=O)N[C@@H](CCCCN)C(=O)N[C@@H](Cc1ccc(O)cc1)C(=O)N[C@@H](CC(C)C)C(=O)N[C@@H](CC(=O)O)C(=O)N[C@@H](CCC(=O)O)C(=O)N[C@@H](CCCNC(=N)N)C(=O)N[C@@H](CCCNC(=N)N)C(=O)N[C@@H](C)C(=O)N[C@@H](CCC(N)=O)C(=O)N[C@@H](CC(=O)O)C(=O)N[C@@H](Cc1ccccc1)C(=O)N[C@H](C(=O)N[C@@H](CCC(N)=O)C(=O)N[C@@H](Cc1c[nH]c2ccccc12)C(=O)N[C@@H](CC(C)C)C(=O)N[C@@H](CCSC)C(=O)N[C@@H](CC(N)=O)C(=O)N[C@H](C(=O)N[C@@H](CCCCN)C(N)=O)[C@@H](C)O)C(C)C)C(=O)O)C(=O)O [OXM417] (H-H[Ac4c]QGTFTSDK([γGlu-γGlu-Palmitoyl])SKYLDERRAQDFVQWLMNTK-NH2) | – | 5.5 | EC50 ([1]; hGCGR + 20% plasma EC50, Table 10, 20% plasma): 0.4 nM |
| H-Acb-QGTFTSDYSKYLDERRAKDFVQWLMNTK-γE-γE-C10-COOH (lactam bridge between E and K) (H-H[Ac4c]QGTFTSDYSKYLDERRAKDFVQWLMNTK[γGlu][γGlu][C10]-OH; lactam 16-20) [OXM398] | about 5.4 | – | – |
| HsQGTFTSDYSSYLDSRRAQDFVQWLMNTK-γE-C4-COOH [OXM355] | about 5 | – | – |
| HαQGTFTSDYC3KYLDSRRAQDFVQWLmNTKRNRNNIA-CONH2 (H[Aib]QGTFTSDYC(mPEG2 40kDa)KYLDSRRAQDFVQWL[Met(O)]NTKRNRNNIA-NH2; not fully specified; printed as HαQGTFTSDYC3KYLDSRRAQDFVQWLmNTKRNRNNIA-CONH2) [OXM121] | – | – | Receptor Selectivity [1]: 0/0 |
| HαQGTFTSDYSC3YLDSRRAQDFVQWLmNTKRNRNNIA-CONH2 (H[Aib]QGTFTSDYSC(mPEG2 40kDa)YLDSRRAQDFVQWL[Met(O)]NTKRNRNNIA-NH2; not fully specified; printed as HαQGTFTSDYSC3YLDSRRAQDFVQWLmNTKRNRNNIA-CONH2) [OXM124] | – | – | Receptor Selectivity [1]: 0/0 |
